For three compounds, EC50 results are on record in US20150057261A1, “AZETIDINE DERIVATIVES AS SPHINGOSINE-1 PHOSPHATE RECEPTORS MODULATORS” (Allergan, Inc., priority 2013, published 2015).

What is called pEC50 is the negative decadic logarithm of the EC50, by convention in mol/L.

pEC50: −log10 of the molar value.

The target of this assay is T1, human S1P1 receptor (Homo sapiens, UniProt P21453).
T1 construct: expressed in transfected cells; membranes used
T1 sequence (P21453 whole entry): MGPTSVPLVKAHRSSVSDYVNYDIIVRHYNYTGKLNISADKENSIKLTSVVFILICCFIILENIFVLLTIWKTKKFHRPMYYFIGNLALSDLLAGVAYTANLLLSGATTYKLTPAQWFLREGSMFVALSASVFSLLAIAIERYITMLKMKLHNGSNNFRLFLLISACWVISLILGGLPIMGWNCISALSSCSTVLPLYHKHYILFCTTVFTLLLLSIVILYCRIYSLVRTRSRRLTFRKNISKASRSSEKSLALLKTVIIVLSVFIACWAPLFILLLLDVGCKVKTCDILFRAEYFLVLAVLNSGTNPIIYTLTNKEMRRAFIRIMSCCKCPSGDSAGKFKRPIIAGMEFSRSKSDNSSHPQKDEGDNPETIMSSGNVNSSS
The assay can be described thus: GTP γ35S binding assay for S1P1 activity. The format is biochemical. The following applies: membranes of cells stably expressing the S1P1 receptor. On the procedure: Compounds were synthesized and tested for S1P1 activity using the GTP γ^35S binding assay. These compounds may be assessed for their ability to activate or block activation of the human S1P1 receptor in cells stably expressing the S1P1 receptor.
GTP γ^35S binding was measured in the medium containing (mM) HEPES 25, pH 7.4, MgCl2 10, NaCl 100, dithiothreitol 0.5, digitonin 0.003%, 0.2 nM GTP γ^35S, and 5 μg membrane protein in a volume of 150 μl. Test compounds were included in the concentration range from 0.08 to 5,000 nM unless indicated otherwise. Membranes were incubated with 100 μM 5′-adenylylimidodiphosphate for 30 min, and subsequently with 10 μM GDP for 10 min on ice. Drug solutions and membrane were mixed, and then reactions were initiated by adding GTP γ^35S and continued for 30 min at 25° C. Reaction mixtures were filtered over Whatman GF/B filters under vacuum, and washed three times with 3 mL of ice-cold buffer (HEPES 25, pH7.4, MgCl2 10 and NaCl 100). Filters were dried and mixed with scintillant, and counted for ^35S activity using a β-counter. Agonist-induced GTP γ^35S binding was obtained by subtracting that in the absence of agonist. Binding data were analyzed using a non-linear regression method. In case of antagonist assay, the reaction mixture contained 10 nM […] in the presence of test antagonist at concentrations ranging from 0.08 to 5000 nM.
In the case of `Cc1ccc(CC(CCCCc2ccc(CN3CC(C(=O)O)C3)cc2)c2cccc(Cl)c2)cc1C` (stereo not drawn) [Compound 1, 1-{4-[5-(3-Chlorophenyl)-6-(3,4-dimethylphenyl)hexyl]benzyl}azetidine-3-carboxylic acid], the negative-log EC50 (pEC50) was 7.19.
Consider `Cc1ccc(CC(CCCc2ccc(CN3CC(C(=O)O)C3)cc2)c2cccc(Cl)c2)cc1C` (stereo not drawn) [Compound 2, 1-{4-[4-(3-Chlorophenyl)-5-(3,4-dimethylphenyl)pentyl]benzyl}azetidine-3-carboxylic acid], for which the pEC50 is 7.77. This pEC50 is 0.58 log units higher than that of the compound before.
Consider `Cc1ccc(CC(CCCCc2ccc(CN3CC(C(=O)O)C3)cc2)c2cc(F)cc(F)c2)cc1C` (stereo not drawn) [Compound 3, 1-{4-[5-(3,5-Difluorophenyl)-6-(3,4-dimethylphenyl)hexyl]benzyl}azetidine-3-carboxylic acid], for which the pEC50 is 8.13.
